Where two headings read alike, the source gives them in different places.
What was measured:
topoisomerase I [1] = target: T1, topoisomerase I (Bos taurus, UniProt F1MN93); experiment: Topoisomerase I inhibition by the cleavable complex assay of Hsiang et al.; type: biochemical; settings: for T-1 Inhibition IC50: cleavable complex assay of Hsiang et al.
T1 sequence (F1MN93 1-767): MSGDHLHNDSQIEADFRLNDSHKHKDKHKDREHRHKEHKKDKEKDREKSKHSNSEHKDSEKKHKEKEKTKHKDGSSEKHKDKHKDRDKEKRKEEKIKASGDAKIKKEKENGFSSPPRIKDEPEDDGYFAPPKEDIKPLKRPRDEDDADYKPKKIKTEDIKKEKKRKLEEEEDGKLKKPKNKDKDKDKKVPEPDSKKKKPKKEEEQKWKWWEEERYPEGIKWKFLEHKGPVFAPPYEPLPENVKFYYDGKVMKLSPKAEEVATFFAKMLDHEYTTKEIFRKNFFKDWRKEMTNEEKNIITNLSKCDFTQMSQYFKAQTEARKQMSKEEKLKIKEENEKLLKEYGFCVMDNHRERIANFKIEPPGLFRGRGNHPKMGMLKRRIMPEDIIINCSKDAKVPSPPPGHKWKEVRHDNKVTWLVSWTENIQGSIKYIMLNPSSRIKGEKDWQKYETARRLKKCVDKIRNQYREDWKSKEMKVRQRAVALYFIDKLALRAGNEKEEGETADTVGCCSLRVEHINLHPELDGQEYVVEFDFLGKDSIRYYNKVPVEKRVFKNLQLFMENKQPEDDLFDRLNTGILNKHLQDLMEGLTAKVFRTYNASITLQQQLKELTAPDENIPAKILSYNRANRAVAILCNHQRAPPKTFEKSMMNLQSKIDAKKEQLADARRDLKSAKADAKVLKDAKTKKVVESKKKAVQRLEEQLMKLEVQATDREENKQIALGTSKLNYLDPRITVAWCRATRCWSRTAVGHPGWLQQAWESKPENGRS

topoisomerase I [2] = target: T2, topoisomerase I (Homo sapiens, UniProt P11387); experiment: Topoisomerase I inhibition relative to 20(S)-camptothecin (separate independent experiments); type: biochemical; settings: T1 relative to 20(S)CPT
T2 sequence (P11387 1-765): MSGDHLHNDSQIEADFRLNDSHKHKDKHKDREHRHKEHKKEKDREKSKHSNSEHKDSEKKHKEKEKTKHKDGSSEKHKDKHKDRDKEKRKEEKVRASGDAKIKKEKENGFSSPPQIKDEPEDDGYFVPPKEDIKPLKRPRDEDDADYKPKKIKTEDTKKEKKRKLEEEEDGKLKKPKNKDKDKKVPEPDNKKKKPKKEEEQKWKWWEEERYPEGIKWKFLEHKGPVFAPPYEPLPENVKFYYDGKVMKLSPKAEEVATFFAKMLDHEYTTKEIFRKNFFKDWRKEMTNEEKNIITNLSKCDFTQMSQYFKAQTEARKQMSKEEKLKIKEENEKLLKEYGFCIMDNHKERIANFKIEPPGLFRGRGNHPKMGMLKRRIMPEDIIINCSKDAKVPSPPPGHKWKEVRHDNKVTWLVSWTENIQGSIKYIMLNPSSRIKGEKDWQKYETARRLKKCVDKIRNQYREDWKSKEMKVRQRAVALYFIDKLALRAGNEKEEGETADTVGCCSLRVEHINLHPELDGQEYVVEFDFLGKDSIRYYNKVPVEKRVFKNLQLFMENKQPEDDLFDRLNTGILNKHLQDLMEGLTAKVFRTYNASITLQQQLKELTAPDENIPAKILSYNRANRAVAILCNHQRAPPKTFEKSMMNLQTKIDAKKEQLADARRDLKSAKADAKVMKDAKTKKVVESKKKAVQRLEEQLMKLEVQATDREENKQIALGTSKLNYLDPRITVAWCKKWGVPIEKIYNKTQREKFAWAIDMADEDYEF

[3] = test system: T. brucei brucei (MiTat 1.2, strain 427, variant 221); experiment: In vitro inhibition of blood stream form trypanosomes, acid phosphatase detection of survivors; type: cell-based; settings: Trypanosoma brucei, read-out: Trypanosome EC50
Method: Camptothecin compounds were tested against blood stream form trypanosomes in vitro. T. brucei brucei (MiTat 1.2, strain 427, variant 221) were cultured at 37° C. according to the methods of Carruthers and Cross (Carruthers, V. B., and Cross, G. A. M. (1992) Proc. Natl. Acad. Sci. USA., 89:8818-8821) with the substitution of phenol red-free Iscoves Modified Dulbecco's Medium (Mediatech, Inc.) in the HMI-9 culture medium. […] Exponentially growing trypanosomes were diluted to 10^5 cells/ml with prewarmed medium.
The plate was incubated at 37° C. for 24 h in a humidified incubator maintained with 5% CO2.
Surviving trypanosomes were detected by the acid phosphatase method (Martin, A. and Clynes, M. (1991) In Vitro Cell. Dev. Biol. 27A:183-184). p-Nitrophenol phosphate (20 μl of 20 mg/ml; solubilized in 1 M sodium acetate, pH 5.5; 1% Triton X-100) was added to each 200 μl sample and mixed. The plate was then incubated for 3-4 h at 37° C. The production of p-nitrophenol was measured at 405 nm on a microplate reader (UVmax kinetic microplate reader, Molecular Devices). Quadruplicate values were averaged and blanks (complete reaction mixture without trypanosomes) were subtracted for each drug concentration.

[4] = blood stream form T. brucei, 24 h at 37° C., acid phosphatase method

For `CC[C@@]1(O)C(=O)OCc2c1cc1n(c2=O)Cc2cc3cc4c(cc3nc2-1)OCO4` [10,11-MD-20(S)-CPT, 10,11-methylenedioxy-20(S)-camptothecin], the IC50 (topoisomerase I [1]) was 0.03 µM, the “Relative Potency T-1 Inhibition” value (topoisomerase I [2]) was 10 and the EC50 ([3]; 24 h) was 0.21 µM.

For `CC[C@@]1(O)C(=O)OCc2c1cc1n(c2=O)Cc2cc3cccc(N)c3nc2-1` [12-Amino-20(S)-CPT], the “T-1 Inhibition IC50” value (topoisomerase I [1]) was “inactive” and the EC50 ([3]; 24 h) was 22.5 µM.

`CC[C@@]1(O)C(=O)OCc2c1cc1n(c2=O)Cc2cc3c([N+](=O)[O-])cccc3nc2-1` [9-Nitro-20(S)-CPT] was tested, and the EC50 [3, 4] was 1.64 µM.

`CC[C@@]1(O)C(=O)OCc2c1cc1n(c2=O)Cc2cc3cc([N+](=O)[O-])ccc3nc2-1` [10-Nitro-20(S)-CPT] showed an EC50 ([3]; 24 h) of 1.75 µM.

With `CCc1c2c(nc3cc4c(c([N+](=O)[O-])c13)OCO4)-c1cc3c(c(=O)n1C2)COC(=O)[C@]3(O)CC` [7-ethyl-9-nitro-10,11-methylenedioxy-20(S)-camptothecin] the “Relative Potency T-1 Inhibition” value (topoisomerase I [2]) was 5 and the EC50 ([3]; 24 h) was 0.21 µM.

In the case of `CCc1c2c(nc3cccc(N)c13)-c1cc3c(c(=O)n1C2)COC(=O)[C@]3(O)CC` [7-Ethyl-9-amino-20(S)-CPT, 7-ethyl-9-amino-20(S)-camptothecin], the “Relative Potency T-1 Inhibition” value (topoisomerase I [2]) is reported as 5 and the EC50 ([3]; 24 h) is reported as 0.91 µM.

For `CCc1c2c(nc3ccc(N)cc13)-c1cc3c(c(=O)n1C2)COC(=O)[C@]3(O)CC` [7-Ethyl-10-amino-20(S)-CPT, 7-ethyl-10-amino-20(S)-camptothecin], the “Relative Potency T-1 Inhibition” value (topoisomerase I [2]) was 5 and the EC50 ([3]; 24 h) was 0.62 µM.

For `CC[C@@]1(O)C(=O)OCc2c1cc1n(c2=O)Cc2cc3ccccc3nc2-1` [20(S)-CPT, 20(S)-camptothecin], the “Relative Potency T-1 Inhibition” value (topoisomerase I [2]) was 1 and the EC50 ([3]; 24 h) was 1.55 µM.

For `CCc1c2c(nc3ccc([N+](=O)[O-])cc13)-c1cc3c(c(=O)n1C2)COC(=O)[C@]3(O)CC` [7-Ethyl-10-nitro-20(S)-CPT, 7-ethyl-10-nitro-20(S)-camptothecin], the “Relative Potency T-1 Inhibition” value (topoisomerase I [2]) was 4 and the EC50 ([3]; 24 h) was 0.6 µM.

`CC[C@@]1(O)C(=O)OCc2c1cc1n(c2=O)Cc2cc3c(N)c4c(cc3nc2-1)OCO4` [9-Amino-10,11-MD-20(S)-CPT, 9-amino-10,11-methylenedioxy-20(S)-camptothecin] gave an IC50 (topoisomerase I [1]) of 0.05 µM and an EC50 ([3]; 24 h) of 0.18 µM.

For `CC[C@@]1(O)C(=O)OCc2c1cc1n(c2=O)Cc2c-1nc1cc3c(cc1c2C)OCO3` [7-Methyl-10,11-methylenedioxy-20(S)-CPT, 7-methyl-10,11-methylenedioxy-20(S)-camptothecin], the “Relative Potency T-1 Inhibition” value (topoisomerase I [2]) was 5 and the EC50 ([3]; 24 h) was 0.04 µM.

In the case of `CC[C@@]1(O)C(=O)OCc2c1cc1n(c2=O)Cc2cc3cc(N)ccc3nc2-1` [10-Amino-20(S)-CPT, 10-amino-20(S)-camptothecin], the “Relative Potency T-1 Inhibition” value (topoisomerase I [2]) is reported as 2 and the EC50 ([3]; 24 h) is reported as 1.2 µM.

For `CC[C@@]1(O)C(=O)OCc2c1cc1n(c2=O)Cc2cc3c(N)cccc3nc2-1` [9-Amino-20(S)-CPT, 9-amino-20(S)-camptothecin], the “Relative Potency T-1 Inhibition” value (topoisomerase I [2]) was 2 and the EC50 [3, 4] was 0.87 µM.

With `CCc1c2c(nc3cccc([N+](=O)[O-])c13)-c1cc3c(c(=O)n1C2)COC(=O)[C@]3(O)CC` [7-Ethyl-9-nitro-20(S)-CPT, 7-ethyl-9-nitro-20(S)-camptothecin] the “Relative Potency T-1 Inhibition” value (topoisomerase I [2]) was 4 and the EC50 ([3]; 24 h) was 2.67 µM.

`CCc1c2c(nc3cc4c(cc13)OCO4)-c1cc3c(c(=O)n1C2)COC(=O)[C@]3(O)CC` [7-Ethyl-10,11-methylenedioxy-20(S)-CPT, 7-ethyl-10,11-methylenedioxy-20(S)-camptothecin] was tested, and the “Relative Potency T-1 Inhibition” value (topoisomerase I [2]) was 12 and the EC50 ([3]; 24 h) was 0.06 µM.

For `CCc1c2c(nc3cc4c(c(N)c13)OCO4)-c1cc3c(c(=O)n1C2)COC(=O)[C@]3(O)CC` [7-ethyl-9-amino-10,11-methylenedioxy-20(S)-camptothecin], the “Relative Potency T-1 Inhibition” value (topoisomerase I [2]) was 10 and the EC50 ([3]; 24 h) was 0.06 µM.

For `CCCc1c2c(nc3ccccc13)-c1cc3c(c(=O)n1C2)COC(=O)[C@]3(O)CC` [7-Propyl-20(S)-CPT, 7-propyl-20(S)-camptothecin], the “Relative Potency T-1 Inhibition” value (topoisomerase I [2]) was 2 and the EC50 ([3]; 24 h) was 0.77 µM.

In the case of `CC[C@@]1(O)C(=O)OCc2c1cc1n(c2=O)Cc2cc3cc(C)ccc3nc2-1` [10-Methyl-20(S)-CPT], the EC50 ([3]; 24 h) is reported as 3.14 µM.

`CC[C@@]1(O)C(=O)OCc2c1cc1n(c2=O)Cc2cc3c(Cl)cccc3nc2-1` [9-Chloro-20(S)-CPT, 9-chloro-20(S)-camptothecin] was tested, and the IC50 (topoisomerase I [1]) was 0.09 µM and the EC50 ([3]; 24 h) was 0.89 µM.

In the case of `CC[C@@]1(O)C(=O)OCc2c1cc1n(c2=O)Cc2cc3ccc(N)cc3nc2-1` [11-Amino-20(S)-CPT], the “T-1 Inhibition IC50” value (topoisomerase I [1]) is reported as “inactive” and the EC50 ([3]; 24 h) is reported as 23.1 µM.

`CCc1c2c(nc3ccccc13)-c1cc3c(c(=O)n1C2)COC(=O)[C@]3(O)CC` [7-Ethyl-20(S)-CPT, 7-ethyl-20(S)-camptothecin] was tested, and the “Relative Potency T-1 Inhibition” value (topoisomerase I [2]) was 3 and the EC50 ([3]; 24 h) was 0.77 µM.

For `CC[C@@]1(O)C(=O)OCc2c1cc1n(c2=O)Cc2cc3c([N+](=O)[O-])c4c(cc3nc2-1)OCO4` [9-Nitro-10,11-methylenedioxy-20(S)-CPT], the “Relative Potency T-1 Inhibition” value (topoisomerase I [2]) was 3 and the EC50 ([3]; 24 h) was 0.4 µM.

`CC[C@@]1(O)C(=O)OCc2c1cc1n(c2=O)Cc2cc3cc(Cl)ccc3nc2-1` [10-Chloro-20(S)-CPT, 10-chloro-20(S)-camptothecin] was tested, and the EC50 ([3]; 24 h) was 1.77 µM.

Compound `CCC1(OC(=O)CN)C(=O)OCc2c1cc1n(c2=O)Cc2cc3cc4c(cc3nc2-1)OCO4` (racemic) [10,11-MD-20-Glycinate-20(RS)-CPT] has an EC50 [3, 4] of 0.92 µM.

With `CC[C@@]1(OC(=O)CN)C(=O)OCc2c1cc1n(c2=O)Cc2cc3ccccc3nc2-1` [20-Glycinate-20(S)-CPT] the EC50 [3, 4] was 5.1 µM.

— patent US5496830A (Johns Hopkins University, priority 1994, dated 1996)
